Laboratory results as given in ChEMBL document CHEMBL6074626, “Recent advances in triazole synthesis via click chemistry and their pharmacological applications: A review” (Bioorg Med Chem Lett, 2024).
In brackets after ≈: the same amount, converted by molar mass.

Tests used:
[1] = test system: HT-29; experiment: Cytotoxicity against human HT-29 cells assessed as reduction in cell viability incubated for 72 hrs by MTT assay; conditions: HT-29, 72 h
[2] = test system: MOLT-4; experiment: Cytotoxicity against human MOLT-4 cells assessed as reduction in cell viability incubated for 72 hrs by MTT assay; conditions: MOLT-4, 72 h
[3] = test system: MCF7; experiment: Cytotoxicity against human MCF7 cells assessed as reduction in cell viability incubated for 72 hrs by MTT assay; conditions: MCF7, 72 h
[4] = test system: Escherichia coli; experiment: microbe, parasite or virus in culture; conditions: ATCC 25922
Description: Antibacterial activity against Escherichia coli ATCC 25922 assessed as reduction in bacterial growth incubated for 18 to 24 hrs by broth microdilution method

[5] = test system: Bacillus cereus; experiment: microbe, parasite or virus in culture; conditions: ATTC 10876
Description: Antibacterial activity against Bacillus cereus ATTC 10876 assessed as reduction in bacterial growth incubated for 18 to 24 hrs by broth microdilution method

[6] = test system: Enterococcus faecalis; experiment: microbe, parasite or virus in culture; conditions: ATCC 29212, 24 h
Description: Antibacterial activity against Enterococcus faecalis ATCC 29212 assessed as inhibition of bacterial growth incubated for 24 hrs by broth microdilution method

[7] = test system: Pseudomonas aeruginosa; experiment: microbe, parasite or virus in culture; conditions: ATCC 27853
Description: Antimicrobial activity against Pseudomonas aeruginosa ATCC 27853 assessed as inhibition of microbial growth by CLSI protocol based two-fold serial broth microdilution method

[8] = test system: Staphylococcus aureus; experiment: microbe, parasite or virus in culture; conditions: ATCC 25923
Description: Antibacterial activity against Staphylococcus aureus ATCC 25923 assessed as reduction in bacterial growth incubated for 18 to 24 hrs by broth microdilution method

[9] = test system: Enterococcus faecalis; experiment: microbe, parasite or virus in culture; conditions: ATTC 29212, 24 h
Description: Antibacterial activity against Enterococcus faecalis ATCC 29212 assessed as reduction in bacterial growth incubated for 24 hrs by CLSI protocol based assay

[10] = test system: Proteus mirabilis; experiment: microbe, parasite or virus in culture; conditions: ATCC 35659
Description: Antibacterial activity against Proteus mirabilis ATCC 35659 assessed as reduction in bacterial growth incubated for 18 to 24 hrs by broth microdilution method

[11] = biological target: T1, Prostaglandin G/H synthase 1 (Ovis aries, UniProt P05979); experiment: Inhibition of ovine COX-1
T1 sequence (P05979 whole entry): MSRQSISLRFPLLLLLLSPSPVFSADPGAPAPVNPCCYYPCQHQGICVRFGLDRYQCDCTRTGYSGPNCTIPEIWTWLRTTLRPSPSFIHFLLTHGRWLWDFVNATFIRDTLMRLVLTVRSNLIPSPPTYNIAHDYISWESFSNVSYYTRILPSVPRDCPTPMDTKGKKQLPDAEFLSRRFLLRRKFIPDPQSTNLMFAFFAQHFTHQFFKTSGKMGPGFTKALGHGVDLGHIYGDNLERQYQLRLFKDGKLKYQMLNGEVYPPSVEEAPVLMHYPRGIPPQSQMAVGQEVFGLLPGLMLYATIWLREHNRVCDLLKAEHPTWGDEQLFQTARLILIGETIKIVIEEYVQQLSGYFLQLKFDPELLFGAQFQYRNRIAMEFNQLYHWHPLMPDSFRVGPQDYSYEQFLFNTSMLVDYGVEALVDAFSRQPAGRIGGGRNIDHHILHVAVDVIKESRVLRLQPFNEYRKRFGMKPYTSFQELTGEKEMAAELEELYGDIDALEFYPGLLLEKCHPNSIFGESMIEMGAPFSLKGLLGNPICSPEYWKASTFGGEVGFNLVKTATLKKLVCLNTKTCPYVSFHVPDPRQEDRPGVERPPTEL

[12] = biological target: T2, Prostaglandin G/H synthase 2 (Homo sapiens, UniProt P35354); experiment: Inhibition of human recombinant COX-2
T2 sequence (P35354 whole entry): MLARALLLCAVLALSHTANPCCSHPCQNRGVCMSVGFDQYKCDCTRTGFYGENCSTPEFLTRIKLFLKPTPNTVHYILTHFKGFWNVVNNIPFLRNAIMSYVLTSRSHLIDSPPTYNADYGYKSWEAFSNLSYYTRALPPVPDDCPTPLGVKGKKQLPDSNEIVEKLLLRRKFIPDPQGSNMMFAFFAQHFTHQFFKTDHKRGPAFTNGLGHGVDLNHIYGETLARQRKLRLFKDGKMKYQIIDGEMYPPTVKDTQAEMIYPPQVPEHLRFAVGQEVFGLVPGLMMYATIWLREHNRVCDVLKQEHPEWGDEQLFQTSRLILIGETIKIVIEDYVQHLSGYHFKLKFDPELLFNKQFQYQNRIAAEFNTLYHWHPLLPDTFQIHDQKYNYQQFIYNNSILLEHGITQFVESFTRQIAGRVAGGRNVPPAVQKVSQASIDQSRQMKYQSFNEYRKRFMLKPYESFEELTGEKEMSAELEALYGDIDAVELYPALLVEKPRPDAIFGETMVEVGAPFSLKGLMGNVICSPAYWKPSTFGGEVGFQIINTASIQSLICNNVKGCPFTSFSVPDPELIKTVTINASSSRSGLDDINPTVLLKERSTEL

[13] = Antioxidant activity assessed as DPPH radical scavenging activity incubated for 30 mins
[14] = test system: Bacillus subtilis; experiment: microbe, parasite or virus in culture; conditions: ATCC 6633, 20 h
Description: Antibacterial activity against Bacillus subtilis ATCC 6633 assessed as bacterial growth inhibition measured for 20 hrs by micro-broth dilution method

[15] = test system: Klebsiella pneumoniae; experiment: microbe, parasite or virus in culture; conditions: ATCC 43816, 20 h
Description: Antimicrobial activity against Klebsiella pneumoniae ATCC 43816 assessed as reduction in bacterial growth incubated for 20 hrs by broth microdilution analysis

[16] = test system: Staphylococcus aureus; experiment: microbe, parasite or virus in culture; conditions: NCTC 13616, 20 h
Description: Antibacterial activity against methicillin-resistant Staphylococcus aureus NCTC 13616 assessed as reduction in bacterial growth incubated for 20 hrs by broth micro-dilution method

[17] = test system: Escherichia coli; experiment: microbe, parasite or virus in culture; conditions: ATCC 8739, 20 h
Description: Antimicrobial activity against Escherichia coli ATCC 8739 assessed as reduction in bacterial growth incubated for 20 hrs by broth microdilution analysis

[18] = test system: Bacillus cereus; experiment: microbe, parasite or virus in culture; conditions: ATCC 14579
Description: Antibacterial activity against Bacillus cereus ATCC 14579 assessed as reduction in bacterial growth incubated for 18 to 24 hrs by broth microdilution method

[19] = test system: Proteus vulgaris; experiment: microbe, parasite or virus in culture; conditions: ATCC 13315, 24 h
Description: Antimicrobial activity against Proteus vulgaris ATCC 13315 assessed as microbial growth inhibition incubated for 24 hrs by broth microdilution method

## O=C1C=C(NCc2cn(Cc3ccc(C(F)(F)F)cc3)nn2)C(=O)c2ccccc21
[1]
  IC50: 6.8 µM
[2]
  IC50: 10.4 µM
[3]
  IC50: 10.4 µM

## CCCCCCCCCCCCn1nnc(-c2n[nH]c(=S)n2N)c1-c1n[nH]c(=S)n1N
[4]
  MIC: 1 µM (≈ 0.466 µg/mL)
[5]
  MIC: 1 µM (≈ 0.466 µg/mL)
[6]
  MIC: 1 µM (≈ 0.466 µg/mL)
[7]
  MIC: 1 µM (≈ 0.466 µg/mL)
[8]
  MIC: 1 µM (≈ 0.466 µg/mL)
[9]
  MIC: 1 µM (≈ 0.466 µg/mL)
[10]
  MIC: 1 µM (≈ 0.466 µg/mL)

## CCCCCCCCCCCCCCCCn1nnc(-c2n[nH]c(=S)n2N)c1-c1n[nH]c(=S)n1N
[4]
  MIC: 1 µM (≈ 0.522 µg/mL)
[5]
  MIC: 1 µM (≈ 0.522 µg/mL)
[6]
  MIC: 1 µM (≈ 0.522 µg/mL)
[7]
  MIC: 1 µM (≈ 0.522 µg/mL)
[8]
  MIC: 1 µM (≈ 0.522 µg/mL)
[9]
  MIC: 1 µM (≈ 0.522 µg/mL)
[10]
  MIC: 1 µM (≈ 0.522 µg/mL)

## CCCCCCCCCCn1nnc(-c2n[nH]c(=S)n2N)c1-c1n[nH]c(=S)n1N
[4]
  MIC: 1 µM (≈ 0.438 µg/mL)
[5]
  MIC: 1 µM (≈ 0.438 µg/mL)
[6]
  MIC: 1 µM (≈ 0.438 µg/mL)
[7]
  MIC: 1 µM (≈ 0.438 µg/mL)
[8]
  MIC: 1 µM (≈ 0.438 µg/mL)
[9]
  MIC: 1 µM (≈ 0.438 µg/mL)
[10]
  MIC: 1 µM (≈ 0.438 µg/mL)

## CCCCCCCCCCCCCCn1nnc(-c2n[nH]c(=S)n2N)c1-c1n[nH]c(=S)n1N
[4]
  MIC: 1 µM (≈ 0.494 µg/mL)
[5]
  MIC: 1 µM (≈ 0.494 µg/mL)
[6]
  MIC: 1 µM (≈ 0.494 µg/mL)
[7]
  MIC: 1 µM (≈ 0.494 µg/mL)
[8]
  MIC: 1 µM (≈ 0.494 µg/mL)
[9]
  MIC: 1 µM (≈ 0.494 µg/mL)
[10]
  MIC: 1 µM (≈ 0.494 µg/mL)

## COc1ccc(/C=C/C(=O)c2cc(-n3cc(CN4C(=O)C(=O)c5ccccc54)nn3)ccc2O)cc1
[11]
  IC50: 7.4 µM

## O=C(/C=C/c1ccc(Br)cc1)c1cc(-n2cc(CN3C(=O)C(=O)c4ccccc43)nn2)ccc1O
[12]
  IC50: 0.037 µM
[11]
  IC50: 7.4 µM

## O=c1cc(-c2ccc(OCCCn3cc(-c4cc5ccccc5c5ccccc45)nn3)cc2)oc2ccccc12
[13]
  IC50: 28.8 µM

## O=C(/C=C/c1ccc(O)cc1)c1cc(-n2cc(CN3C(=O)C(=O)c4ccccc43)nn2)ccc1O
[12]
  IC50: 0.037 µM
[11]
  IC50: 7.4 µM

## O=C(/C=C/c1ccc(Cl)cc1)c1cc(-n2cc(CN3C(=O)C(=O)c4ccccc43)nn2)ccc1O
[12]
  IC50: 0.037 µM
[11]
  IC50: 7.4 µM

## CN(C)C(=O)c1ccc(/C=C/C(=O)c2cc(-n3cc(-c4ccccc4)nn3)ccc2O)cc1
[12]
  IC50: 0.037 µM
[11]
  IC50: 7.4 µM

## O=C(/C=C/c1ccc(Br)cc1)c1cc(-n2cc(-c3ccccc3)nn2)ccc1O
[12]
  IC50: 0.037 µM
[11]
  IC50: 7.4 µM

## CC(C)Cc1ccc(C(C)C(=O)c2ccc(OCc3cn(-c4ccccc4)nn3)cc2O)cc1 (stereo not given)
[14]
  MIC: 12 µg/mL (≈ 26.3 µM)
[15]
  MIC: 12 µg/mL (≈ 26.3 µM)
[16]
  MIC: 12 µg/mL (≈ 26.3 µM)
[17]
  MIC: 12 µg/mL (≈ 26.3 µM)
[18]
  MIC: 12 µg/mL (≈ 26.3 µM)
[19]
  MIC: 12 µg/mL (≈ 26.3 µM)

## Cc1ccc(/C=C/C(=O)c2cc(-n3cc(CN4C(=O)C(=O)c5ccccc54)nn3)ccc2O)cc1
[12]
  IC50: 0.037 µM
[11]
  IC50: 7.4 µM

## O=C(/C=C/c1ccccc1)c1cc(-n2cc(-c3ccccc3)nn2)ccc1O
[12]
  IC50: 0.037 µM
[11]
  IC50: 7.4 µM

## O=C(/C=C/C=C/c1ccccc1)c1cc(-n2cc(-c3ccccc3)nn2)ccc1O
[12]
  IC50: 0.037 µM
[11]
  IC50: 7.4 µM

## Cc1ccc(/C=C/C(=O)c2cc(-n3cc(-c4ccccc4)nn3)ccc2O)cc1
[12]
  IC50: 0.037 µM
[11]
  IC50: 7.4 µM

## CC(C)Cc1ccc(C(C)C(=O)c2ccc(OCc3cn(-c4cccc(Cl)c4)nn3)cc2O)cc1 (stereo not given)
[14]
  MIC: 12 µg/mL (≈ 24.5 µM)
[15]
  MIC: 12 µg/mL (≈ 24.5 µM)
[16]
  MIC: 12 µg/mL (≈ 24.5 µM)
[17]
  MIC: 12 µg/mL (≈ 24.5 µM)
[18]
  MIC: 12 µg/mL (≈ 24.5 µM)
[19]
  MIC: 12 µg/mL (≈ 24.5 µM)

## O=C(/C=C/c1ccc(O)cc1)c1cc(-n2cc(-c3ccccc3)nn2)ccc1O
[12]
  IC50: 0.037 µM
[11]
  IC50: 7.4 µM
